Data as given in the supplement of paper PMC8967900.

Tests used:
Experiment in all cases: selective drug sensitivity score (sDSS, relative to normal bone marrow) (sDSS (score)); higher = more potent and effective on the cell line relative to normal bone marrow cells
Settings in all cases: 72 h
ALL-SIL = system: ALL-SIL
CCRF-CEM = system: CCRF-CEM
COG-LL-317 = system: COG-LL-317
COG-LL-319h = system: COG-LL-319h
HPB-ALL = system: HPB-ALL
KARPAS-45 = system: KARPAS-45
KASUMI-10 = system: KASUMI-10
KASUMI-2 = system: KASUMI-2
MHH-CALL-2 = system: MHH-CALL-2
MHH-CALL-3 = system: MHH-CALL-3
MHH-CALL-4 = system: MHH-CALL-4
MOLT-16 = system: MOLT-16
MOLT-4 = system: MOLT-4
NALM-6 = system: NALM-6
PEER = system: PEER
PF-382 = system: PF-382
RCH-ACV = system: RCH-ACV
RPMI-8402 = system: RPMI-8402
SEM cells = system: SEM cells
TMD5 = system: TMD5
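Further: ALL cell lines in 384-well plates, five doses spanning 10,000-fold, each plate scaled between vehicle and 100 µmol/L benzalkonium chloride controls, sDSS an adapted area-under-curve metric.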

Cc1cc(OCc2nnc(SC3CCCC3)n2-c2cccnc2)ccc1-c1ccc(S(C)(=O)=O)cc1 [NMS-873] (top concentration 10000 nM)
selective drug sensitivity score (ALL-SIL): 8.96
selective drug sensitivity score (CCRF-CEM): 1.46
selective drug sensitivity score (COG-LL-317): 0.16
selective drug sensitivity score (COG-LL-319h): 10.3
selective drug sensitivity score (HPB-ALL): 6.26
selective drug sensitivity score (KARPAS-45): 11.4
selective drug sensitivity score (KASUMI-10): -0.14
selective drug sensitivity score (KASUMI-2): 4.26
selective drug sensitivity score (MHH-CALL-2): 6.76
selective drug sensitivity score (MHH-CALL-3): 6.06
selective drug sensitivity score (MHH-CALL-4): 6.96
selective drug sensitivity score (MOLT-16): 17.6
selective drug sensitivity score (MOLT-4): 17.4
selective drug sensitivity score (NALM-6): 7.36
selective drug sensitivity score (PEER): 22.9
selective drug sensitivity score (PF-382): 11.8
selective drug sensitivity score (RCH-ACV): 11.7
selective drug sensitivity score (RPMI-8402): 21.3
selective drug sensitivity score (SEM cells): 5.06
selective drug sensitivity score (TMD5): 2.26

COC(=O)c1ccc2c(c1)NC(=O)/C2=C(\Nc1ccc(N(C)C(=O)CN2CCN(C)CC2)cc1)c1ccccc1 [Nintedanib] (top concentration 10000 nM)
selective drug sensitivity score (ALL-SIL): 14.3
selective drug sensitivity score (CCRF-CEM): -1.46
selective drug sensitivity score (COG-LL-317): -1.76
selective drug sensitivity score (COG-LL-319h): 8.74
selective drug sensitivity score (HPB-ALL): 0.64
selective drug sensitivity score (KARPAS-45): 0.54
selective drug sensitivity score (KASUMI-10): 14.1
selective drug sensitivity score (KASUMI-2): -6.36
selective drug sensitivity score (MHH-CALL-2): 1.04
selective drug sensitivity score (MHH-CALL-3): -0.26
selective drug sensitivity score (MHH-CALL-4): -1.66
selective drug sensitivity score (MOLT-16): -2.26
selective drug sensitivity score (MOLT-4): -1.96
selective drug sensitivity score (NALM-6): -2.36
selective drug sensitivity score (PEER): 5.94
selective drug sensitivity score (PF-382): 5.04
selective drug sensitivity score (RCH-ACV): 3.64
selective drug sensitivity score (RPMI-8402): 1.14
selective drug sensitivity score (SEM cells): 16
selective drug sensitivity score (TMD5): 0.84

O=C(c1cc(Cc2n[nH]c(=O)c3ccccc23)ccc1F)N1CCN(C(=O)C2CC2)CC1 [Olaparib] (top concentration 10000 nM)
selective drug sensitivity score (ALL-SIL): -0.02
selective drug sensitivity score (CCRF-CEM): 3.78
selective drug sensitivity score (COG-LL-317): 13
selective drug sensitivity score (COG-LL-319h): 11.7
selective drug sensitivity score (HPB-ALL): -1.32
selective drug sensitivity score (KARPAS-45): 0.38
selective drug sensitivity score (KASUMI-10): 2.88
selective drug sensitivity score (KASUMI-2): 4.78
selective drug sensitivity score (MHH-CALL-2): 8.88
selective drug sensitivity score (MHH-CALL-3): 21.9
selective drug sensitivity score (MHH-CALL-4): 8.68
selective drug sensitivity score (MOLT-16): 9.08
selective drug sensitivity score (MOLT-4): 4.18
selective drug sensitivity score (NALM-6): 1.48
selective drug sensitivity score (PEER): 1.28
selective drug sensitivity score (PF-382): -0.52
selective drug sensitivity score (RCH-ACV): 7.38
selective drug sensitivity score (RPMI-8402): -0.02
selective drug sensitivity score (SEM cells): 5.18
selective drug sensitivity score (TMD5): 4.48

O=C(O)C(=O)O.[NH-][C@@H]1CCCC[C@H]1[NH-].[Pt+2] [Oxaliplatin] (top concentration 100000 nM)
selective drug sensitivity score (ALL-SIL): 3.42
selective drug sensitivity score (CCRF-CEM): 8.22
selective drug sensitivity score (COG-LL-317): 17.2
selective drug sensitivity score (COG-LL-319h): 15.6
selective drug sensitivity score (HPB-ALL): -0.78
selective drug sensitivity score (KARPAS-45): -0.08
selective drug sensitivity score (KASUMI-10): 14.2
selective drug sensitivity score (KASUMI-2): 12.8
selective drug sensitivity score (MHH-CALL-2): 13.9
selective drug sensitivity score (MHH-CALL-3): 10.3
selective drug sensitivity score (MHH-CALL-4): 12.1
selective drug sensitivity score (MOLT-16): 17.1
selective drug sensitivity score (MOLT-4): 12.4
selective drug sensitivity score (NALM-6): 6.12
selective drug sensitivity score (PEER): 0.62
selective drug sensitivity score (PF-382): -0.28
selective drug sensitivity score (RCH-ACV): 11.6
selective drug sensitivity score (RPMI-8402): 8.02
selective drug sensitivity score (SEM cells): 8.52
selective drug sensitivity score (TMD5): -0.08

CS(=O)(=O)N1CCN(Cc2cc3nc(-c4cccc5[nH]ncc45)nc(N4CCOCC4)c3s2)CC1 [Pictilisib] (top concentration 10000 nM)
selective drug sensitivity score (ALL-SIL): 4.56
selective drug sensitivity score (CCRF-CEM): 5.36
selective drug sensitivity score (COG-LL-317): -0.94
selective drug sensitivity score (COG-LL-319h): 5.56
selective drug sensitivity score (HPB-ALL): -0.04
selective drug sensitivity score (KARPAS-45): 6.36
selective drug sensitivity score (KASUMI-10): 3.96
selective drug sensitivity score (KASUMI-2): 8.46
selective drug sensitivity score (MHH-CALL-2): 12.3
selective drug sensitivity score (MHH-CALL-3): 10.6
selective drug sensitivity score (MHH-CALL-4): 9.26
selective drug sensitivity score (MOLT-16): 4.16
selective drug sensitivity score (MOLT-4): 9.36
selective drug sensitivity score (NALM-6): 12.9
selective drug sensitivity score (PEER): -2.24
selective drug sensitivity score (PF-382): 6.26
selective drug sensitivity score (RCH-ACV): 26.2
selective drug sensitivity score (RPMI-8402): 6.26
selective drug sensitivity score (SEM cells): 9.66
selective drug sensitivity score (TMD5): 2.56

CCOC(=O)C1=CCCC[C@H]1S(=O)(=O)Nc1ccc(F)cc1Cl [Resatorvid] (top concentration 10000 nM)
selective drug sensitivity score (ALL-SIL): 0
selective drug sensitivity score (CCRF-CEM): 0
selective drug sensitivity score (COG-LL-317): 0
selective drug sensitivity score (COG-LL-319h): 0
selective drug sensitivity score (HPB-ALL): 0
selective drug sensitivity score (KARPAS-45): 0
selective drug sensitivity score (KASUMI-10): 0
selective drug sensitivity score (KASUMI-2): 0
selective drug sensitivity score (MHH-CALL-2): 0
selective drug sensitivity score (MHH-CALL-3): 0
selective drug sensitivity score (MHH-CALL-4): 0
selective drug sensitivity score (MOLT-16): 0
selective drug sensitivity score (MOLT-4): 0
selective drug sensitivity score (NALM-6): 0
selective drug sensitivity score (PEER): 0
selective drug sensitivity score (PF-382): 0
selective drug sensitivity score (RCH-ACV): 0
selective drug sensitivity score (RPMI-8402): 0
selective drug sensitivity score (SEM cells): 0
selective drug sensitivity score (TMD5): 0

CO[C@H]1C[C@@H]2CC[C@@H](C)[C@@](O)(O2)C(=O)C(=O)N2CCCC[C@H]2C(=O)O[C@H]([C@H](C)C[C@@H]2CC[C@@H](OP(C)(C)=O)[C@H](OC)C2)CC(=O)[C@H](C)/C=C(\C)[C@@H](O)[C@@H](OC)C(=O)[C@H](C)C[C@H](C)/C=C/C=C/C=C/1C [Ridaforolimus] (top concentration 100 nM)
selective drug sensitivity score (ALL-SIL): 3.06
selective drug sensitivity score (CCRF-CEM): 7.36
selective drug sensitivity score (COG-LL-317): 2.76
selective drug sensitivity score (COG-LL-319h): 4.76
selective drug sensitivity score (HPB-ALL): -4.84
selective drug sensitivity score (KARPAS-45): 1.56
selective drug sensitivity score (KASUMI-10): -4.84
selective drug sensitivity score (KASUMI-2): 8.66
selective drug sensitivity score (MHH-CALL-2): -2.24
selective drug sensitivity score (MHH-CALL-3): 3.96
selective drug sensitivity score (MHH-CALL-4): -4.44
selective drug sensitivity score (MOLT-16): 10.6
selective drug sensitivity score (MOLT-4): -2.04
selective drug sensitivity score (NALM-6): -4.84
selective drug sensitivity score (PEER): 7.26
selective drug sensitivity score (PF-382): 5.86
selective drug sensitivity score (RCH-ACV): 18.9
selective drug sensitivity score (RPMI-8402): -1.44
selective drug sensitivity score (SEM cells): 5.66
selective drug sensitivity score (TMD5): -4.84
